According to PMC3155652 (Journal of inorganic biochemistry, 2011):
Ends that are not written are not given here.

B1: murine iNOS: murine inducible NOS (protein, UniProt P29477 1-1144, looked up)
Nitric oxide synthase, …: MACPWKFLFKVKSYQSDLKEEKDINNNVKKTPCAVLSPTIQDDPKSHQNGSPQLLTGTAQNVPESLDKLHVTSTRPQYVRIKNWGSGEILHDTLHHKATSDFTCKSKSCLGSIMNPKSLTRGPRDKPTPLEELLPHAIEFINQYYGSFKEAKIEEHLARLEAVTKEIETTGTYQLTLDELIFATKMAWRNAPRCIGRIQWSNLQVFDARNCSTAQEMFQHICRHILYATNNGNIRSAITVFPQRSDGKHDFRLWNSQLIRYAGYQMPDGTIRGDAATLEFTQLCIDLGWKPRYGRFDVLPLVLQADGQDPEVFEIPPDLVLEVTMEHPKYEWFQELGLKWYALPAVANMLLEVGGLEFPACPFNGWYMGTEIGVRDFCDTQRYNILEEVGRRMGLETHTLASLWKDRAVTEINVAVLHSFQKQNVTIMDHHTASESFMKHMQNEYRARGGCPADWIWLVPPVSGSITPVFHQEMLNYVLSPFYYYQIEPWKTHIWQNEKLRPRRREIRFRVLVKVVFFASMLMRKVMASRVRATVLFATETGKSEALARDLATLFSYAFNTKVVCMDQYKASTLEEEQLLLVVTSTFGNGDCPSNGQTLKKSLFMLRELNHTFRYAVFGLGSSMYPQFCAFAHDIDQKLSHLGASQLAPTGEGDELSGQEDAFRSWAVQTFRAACETFDVRSKHHIQIPKRFTSNATWEPQQYRLIQSPEPLDLNRALSSIHAKNVFTMRLKSQQNLQSEKSSRTTLLVQLTFEGSRGPSYLPGEHLGIFPGNQTALVQGILERVVDCPTPHQTVCLEVLDESGSYWVKDKRLPPCSLSQALTYFLDITTPPTQLQLHKLARFATDETDRQRLEALCQPSEYNDWKFSNNPTFLEVLEEFPSLHVPAAFLLSQLPILKPRYYSISSSQDHTPSEVHLTVAVVTYRTRDGQGPLHHGVCSTWIRNLKPQDPVPCFVRSVSGFQLPEDPSQPCILIGPGTGIAPFRSFWQQRLHDSQHKGLKGGRMSLVFGCRHPEEDHLYQEEMQEMVRKRVLFQVHTGYSRLPGKPKVYVQDILQKQLANEVLSVLHGEQGHLYICGDVRMARDVATTLKKLVATKLNLSEEQVEDYFFQLKSQKRYHEDIFGAVFSYGAKKGSALEEPKATRL
B2: nNOS: neuronal NOS (protein, UniProt P29475 1-1434, looked up)
Nitric oxide synthase 1: MEDHMFGVQQIQPNVISVRLFKRKVGGLGFLVKERVSKPPVIISDLIRGGAAEQSGLIQAGDIILAVNGRPLVDLSYDSALEVLRGIASETHVVLILRGPEGFTTHLETTFTGDGTPKTIRVTQPLGPPTKAVDLSHQPPAGKEQPLAVDGASGPGNGPQHAYDDGQEAGSLPHANGLAPRPPGQDPAKKATRVSLQGRGENNELLKEIEPVLSLLTSGSRGVKGGAPAKAEMKDMGIQVDRDLDGKSHKPLPLGVENDRVFNDLWGKGNVPVVLNNPYSEKEQPPTSGKQSPTKNGSPSKCPRFLKVKNWETEVVLTDTLHLKSTLETGCTEYICMGSIMHPSQHARRPEDVRTKGQLFPLAKEFIDQYYSSIKRFGSKAHMERLEEVNKEIDTTSTYQLKDTELIYGAKHAWRNASRCVGRIQWSKLQVFDARDCTTAHGMFNYICNHVKYATNKGNLRSAITIFPQRTDGKHDFRVWNSQLIRYAGYKQPDGSTLGDPANVQFTEICIQQGWKPPRGRFDVLPLLLQANGNDPELFQIPPELVLEVPIRHPKFEWFKDLGLKWYGLPAVSNMLLEIGGLEFSACPFSGWYMGTEIGVRDYCDNSRYNILEEVAKKMNLDMRKTSSLWKDQALVEINIAVLYSFQSDKVTIVDHHSATESFIKHMENEYRCRGGCPADWVWIVPPMSGSITPVFHQEMLNYRLTPSFEYQPDPWNTHVWKGTNGTPTKRRAIGFKKLAEAVKFSAKLMGQAMAKRVKATILYATETGKSQAYAKTLCEIFKHAFDAKVMSMEEYDIVHLEHETLVLVVTSTFGNGDPPENGEKFGCALMEMRHPNSVQEERKSYKVRFNSVSSYSDSQKSSGDGPDLRDNFESAGPLANVRFSVFGLGSRAYPHFCAFGHAVDTLLEELGGERILKMREGDELCGQEEAFRTWAKKVFKAACDVFCVGDDVNIEKANNSLISNDRSWKRNKFRLTFVAEAPELTQGLSNVHKKRVSAARLLSRQNLQSPKSSRSTIFVRLHTNGSQELQYQPGDHLGVFPGNHEDLVNALIERLEDAPPVNQMVKVELLEERNTALGVISNWTDELRLPPCTIFQAFKYYLDITTPPTPLQLQQFASLATSEKEKQRLLVLSKGLQEYEEWKWGKNPTIVEVLEEFPSIQMPATLLLTQLSLLQPRYYSISSSPDMYPDEVHLTVAIVSYRTRDGEGPIHHGVCSSWLNRIQADELVPCFVRGAPSFHLPRNPQVPCILVGPGTGIAPFRSFWQQRQFDIQHKGMNPCPMVLVFGCRQSKIDHIYREETLQAKNKGVFRELYTAYSREPDKPKKYVQDILQEQLAESVYRALKEQGGHIYVCGDVTMAADVLKAIQRIMTQQGKLSAEDAGVFISRMRDDNRYHEDIFGVTLRTYEVTNRLRSESIAFIEESKKDTDEVFSS

Key:
[1] = cited from earlier work; for rate of electron transfer to heme from FMN: ref [49]; for interdomain electron transfer FMN to heme: laser flash photolysis, in the presence of CaM, ref [50], [51]
holo CaM = holo CaM to immobilized target peptide, ref [21]; cited from earlier work
holo Alexa-CaM [2] = molecular target: T1, holo Alexa-CaM (Homo sapiens, UniProt P0DP23, T111W/T35C); experiment: Apparent Kd calculated as koff/kon; assay type: binding
holo Alexa-CaM [3] = molecular target: T1, holo Alexa-CaM; experiment: Stopped-flow association kinetics of NOS target peptides with holo Alexa-CaM; assay type: binding; conditions: pH 8
holo Alexa-CaM [4] = molecular target: T1, holo Alexa-CaM; assay type: binding; conditions: 2 mM EDTA, stopped-flow

Row | Molecule | rate of electron transfer to heme from FMN [1] | interdomain electron transfer FMN to heme [1] | also measured
1 | iNOS: inducible NOS | 11 s⁻¹ | – | –
2 | eNOS: endothelial NOS | 2 to 5 s⁻¹ | – | –
3 | nNOS725–750: immobilized nNOS target peptide of previous SPR study (NGTPTKRRAIGFKKLAEAVKFSAKLM; UniProt P29475 725-750, looked up, fragment) | – | – | kon (binding rate by SPR) (holo CaM): 158000 M⁻¹ s⁻¹
4 | rat nNOS: rat neuronal NOS in the presence of CaM | – | 36 s⁻¹ | –
5 | human iNOS: human inducible NOS | – | 34 s⁻¹ | –
6 | RRAIGFKKLAEAVKFSAKLMGGAM [nNOS726–749] | – | – | Kd (holo Alexa-CaM [2]): 5.6 nM; kon (holo Alexa-CaM [3]): 6.6e+08 M⁻¹ s⁻¹; fast phase, share of overall FW110 increase (holo Alexa-CaM [4]): 81%
7 | CC[C@H](C)[C@H](NC(=O)[C@H](CCCCN)NC(=O)[C@@H](NC(=O)[C@H](C)NC(=O)[C@H](CC(N)=O)NC(=O)[C@H](C)NC(=O)[C@@H](NC(=O)[C@H](CCC(=O)O)NC(=O)[C@H](CCCCN)NC(=O)[C@H](Cc1ccccc1)NC(=O)[C@@H](NC(=O)[C@H](CCCCN)NC(=O)[C@H](CCCCN)NC(=O)[C@@H](N)CCCNC(=N)N)[C@@H](C)O)C(C)C)C(C)C)C(=O)N[C@@H](CO)C(=O)N[C@@H](C)C(=O)N[C@@H](CO)C(=O)N[C@@H](CC(C)C)C(=O)N[C@@H](CCSC)C(=O)NCC(=O)O [eNOS492–511] | – | – | fast phase, share of overall FW110 increase (holo Alexa-CaM [4]): 83%
8 | B1 | – | 35 s⁻¹ | –
9 | B2 | 40 to 50 s⁻¹ | – | interdomain electron transfer FMN to heme in absence of CaM ([1]; absence of CaM, ref [51]): No such redox event was observed
